# Assay results as given in patent publication US9023789B2, “Amylin analogs and pharmaceutical compositions thereof” (Novo Nordisk A/S, priority 2012, dated 2015).
# Read-outs that look alike come from different tables or passages of the source. Numbered stars: 1 amine (or outer) side, 2 acyl side, 3 side chain; on linkers, the order of the positions; unused ones are H or OH. Bridge positions count the residues as written; N and C are the ends. Side chains are listed from the residue outwards. Peptide text beside a SMILES is read from it. * marks the point of attachment. C20 diacid = O=C(O)CCCCCCCCCCCCCCCCCCC(=O)*; γGlu = O=C(O)[C@H](CCC(=O)[*:2])N[*:1]
# Key:
# [1] = biological target: T1, human amylin 3(a) receptor (human calcitonin receptor + RAMP-3) in BHK570 cells (Homo sapiens, UniProt O60896+P30988); assay: ASSAY (II)a functional assay, human amylin receptor (CRE luciferase); format: cell-based; details: for EC50: human amylin receptor functional potency, assay (II), read-out: hAmylin-R funct. EC50
# T1 construct: expressed in transfected cells
# Outline: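 BHK CRE-luc cells, calcitonin (a) receptor ± RAMP-3 (amylin 3(a)); overnight seeding, 37° C/5% CO2. 3 h ligand exposure, DMEM/10% FBS/10 mM Hepes pH 7.4. LucLite 30 min RT; luminescence (SPC).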
# [2] = biological target: T2, human amylin receptor (membranes from Amylin 3(a)/CRE-luc cells) (Homo sapiens, UniProt O60896+P30988); assay: ASSAY (V) binding to the human amylin receptor (SPA, 125I-rat amylin); details: for IC50: Table 4, read-out: hAmylin-R bind IC50;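 on all read-outs here: competition binding of cell membranes (35 ng/µL) mixed with SPA beads in 384-well plates at 40 µL total volume, read by scintillation counting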
# T2 construct: expressed in transfected cells
# T2 sequence (P30988 25-474): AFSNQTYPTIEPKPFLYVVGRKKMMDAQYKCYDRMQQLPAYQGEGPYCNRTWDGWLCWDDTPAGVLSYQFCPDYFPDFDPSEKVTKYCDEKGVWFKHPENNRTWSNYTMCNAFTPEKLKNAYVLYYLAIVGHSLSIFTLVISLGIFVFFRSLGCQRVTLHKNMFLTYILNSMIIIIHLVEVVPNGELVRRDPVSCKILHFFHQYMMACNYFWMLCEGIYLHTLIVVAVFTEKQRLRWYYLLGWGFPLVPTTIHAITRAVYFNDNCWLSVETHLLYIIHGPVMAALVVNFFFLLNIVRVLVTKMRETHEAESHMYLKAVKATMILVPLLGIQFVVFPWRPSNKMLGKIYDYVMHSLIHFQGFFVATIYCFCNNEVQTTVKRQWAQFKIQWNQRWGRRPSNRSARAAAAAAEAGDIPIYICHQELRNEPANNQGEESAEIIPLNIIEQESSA
# T2 sequence (O60896 24-148 partner): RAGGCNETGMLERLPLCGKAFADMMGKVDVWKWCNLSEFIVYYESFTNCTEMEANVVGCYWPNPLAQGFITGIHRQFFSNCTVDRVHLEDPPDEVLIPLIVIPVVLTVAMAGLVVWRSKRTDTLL
# [3] = ASSAY (IV) determination of solubility; format: physicochemical
# Outline: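 Polypeptide in water at […] mixed 1:1 with 100 mM buffers of pH 3.0-8.0 (glycylglycine pH 3-5, bistrispropane pH 6-8). Held 18 h at room temperature, then centrifuged; concentration remaining in solution measured by UPLC.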
# rat calcitonin receptor = biological target: T3, rat calcitonin receptor (Rattus norvegicus, UniProt P32214); assay: ASSAY (VIII) binding to the rat calcitonin receptor; details: Table 7, read-out: rCTR bind IC50
# T3 construct: expressed in transfected cells; host or cells: BHK tk'ts 13 (transient, FuGENE 6), membranes
# T3 sequence (P32214 25-479 isoform P32214-2 limits assumed): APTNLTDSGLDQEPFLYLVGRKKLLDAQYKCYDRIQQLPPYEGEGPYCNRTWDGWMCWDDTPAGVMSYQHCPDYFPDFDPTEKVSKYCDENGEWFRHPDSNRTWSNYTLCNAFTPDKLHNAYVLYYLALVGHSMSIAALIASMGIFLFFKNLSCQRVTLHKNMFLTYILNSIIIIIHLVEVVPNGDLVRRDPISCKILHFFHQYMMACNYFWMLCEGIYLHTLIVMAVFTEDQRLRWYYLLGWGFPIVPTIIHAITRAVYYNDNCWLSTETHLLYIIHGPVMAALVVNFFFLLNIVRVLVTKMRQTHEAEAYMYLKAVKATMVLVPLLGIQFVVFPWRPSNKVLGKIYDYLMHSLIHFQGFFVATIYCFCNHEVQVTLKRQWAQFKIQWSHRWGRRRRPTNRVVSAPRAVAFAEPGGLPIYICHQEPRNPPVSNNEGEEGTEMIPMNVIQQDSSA
# Outline: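 Membranes were prepared from BHK tk′ts 13 cells transiently transfected with rat calcitonin receptor. Cells were grown in DMEM with 10% FBS and harvested approximately 48 hours after transfection.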
# [4] = biological target: T4, rat amylin receptor (rat calcitonin receptor + rat RAMP 3) (Rattus norvegicus, UniProt P32214+Q9JJ73); assay: ASSAY (VI) binding to the rat amylin receptor; details: for IC50: binding to rat amylin receptor, read-out: rAmylin-R bind IC50
# T4 construct: expressed in transfected cells; host or cells: BHK tk'ts 13 (transient, FuGENE 6), membranes
# T4 sequence (P32214 25-479 isoform P32214-2 limits assumed): T3 sequence (P32214 25-479 isoform P32214-2 limits assumed)
# T4 sequence (Q9JJ73 23-147 partner): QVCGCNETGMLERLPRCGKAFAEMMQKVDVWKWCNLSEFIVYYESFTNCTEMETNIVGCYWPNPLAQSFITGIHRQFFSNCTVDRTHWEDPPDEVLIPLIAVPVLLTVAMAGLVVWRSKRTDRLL
# Outline: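 This assay measured binding to the rat amylin receptor. BHK tk′ts 13 cells were transiently transfected with the rat calcitonin receptor using FuGENE® 6 (Roche), following the manufacturer's recommendations. About 48 hours after transfection, the cells were harvested and membranes were prepared from them for the binding determination.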
# [5] = hCTR funct. EC50 divided by hAmylin-R funct. EC50
# [6] = human functional selectivity: hCTR funct. EC50 / hAmylin-R funct. EC50
# [7] = Table 5, selectivity, hCTR bind IC50 / hAmylin-R bind IC50
# [8] = Table 5a, selectivity, hCTR bind IC50 / hAmylin-R bind IC50
# [9] = Table 5b, selectivity, hCTR bind IC50 / hAmylin-R bind IC50
# [10] = Table 5c, selectivity, hCTR bind IC50 / hAmylin-R bind IC50
# [11] = Table 7, human binding selectivity, included for comparison
# [12] = Table 7a (preferred compounds), human binding selectivity, included for comparison
# [13] = ratio of human calcitonin receptor binding IC50 to human amylin receptor binding IC50
# [14] = bistrispropane buffer, pH 6.5, read-out: Solubility pH 6.5 Concentration
# [15] = bistrispropane buffer, pH 7.5, read-out: Solubility pH 7.5 Concentration
# [16] = bistrispropane buffer, pH 6.0, read-out: Solubility pH 6.0 Concentration
# [17] = bistrispropane buffer, pH 7.0, read-out: Solubility pH 7.0 Concentration
# [18] = bistrispropane buffer, pH 8.0, read-out: Solubility pH 8.0 Concentration
# [19] = glycylglycine buffer, pH 3.0, read-out: Solubility pH 3.0 Concentration
# [20] = glycylglycine buffer, pH 4.0, read-out: Solubility pH 4.0 Concentration
# [21] = glycylglycine buffer, pH 5.0, read-out: Solubility pH 5.0 Concentration
# [22] = Table 7, rat binding selectivity, rCTR IC50 / rAmylin-R IC50
# [23] = Table 7a (preferred compounds), rat binding selectivity, rCTR IC50 / rAmylin-R IC50
# [24] = ratio of rCTR bind IC50 to rAmylin-R bind IC50
# [25] = hCTR funct. EC50 over hAmylin-R funct. EC50
Compound,"Ratio hCT/hAmylin funct. [1, 5]","Ratio hCT/hAmylin funct. [1, 6]","Ratio hCT/hAmylin binding [2, 7]","Ratio hCT/hAmylin binding [2, 8]","Ratio hCT/hAmylin binding [2, 9]","Ratio hCT/hAmylin binding [2, 10]","Ratio hCT/hAmylin binding [2, 11]","Ratio hCT/hAmylin binding [2, 12]","Ratio hCT/hAmylin binding [2, 13]","solubility at 18 h [3, 14] [µM]","solubility at 18 h [3, 15] [µM]","solubility at 18 h [3, 16] [µM]","solubility at 18 h [3, 17] [µM]","solubility at 18 h [3, 18] [µM]","solubility at 18 h [3, 19] [µM]","solubility at 18 h [3, 20] [µM]","solubility at 18 h [3, 21] [µM]",IC50 (rat calcitonin receptor) [nM],IC50 ([4]; Table 7) [nM],"Ratio rCT/rAmylin binding [4, 22]",also measured
CC[C@H](C)[C@H](NC(=O)[C@H](C)NC(=O)CNC(=O)[C@H](Cc1ccccc1)NC(=O)[C@H](CC(N)=O)NC(=O)[C@@H]1CCCN1C(=O)[C@H](CO)NC(=O)[C@H](CO)NC(=O)[C@H](Cc1c[nH]cn1)NC(=O)[C@H](CCCNC(=N)N)NC(=O)[C@H](CC(C)C)NC(=O)[C@H](Cc1ccccc1)NC(=O)[C@H](Cc1c[nH]cn1)NC(=O)[C@H](C)NC(=O)[C@H](CC(C)C)NC(=O)[C@H](CCCNC(=N)N)NC(=O)[C@H](CCC(N)=O)NC(=O)[C@@H](NC(=O)[C@H](C)NC(=O)[C@@H]1CSSC[C@H](NC(=O)[C@@H](N)CCCCNC(=O)COCCOCCNC(=O)CCCCCCCCCCCCCCCCCCC(=O)O)C(=O)N[C@@H](CC(N)=O)C(=O)N[C@@H]([C@@H](C)O)C(=O)N[C@@H](C)C(=O)N[C@@H]([C@@H](C)O)C(=O)N1)[C@@H](C)O)C(=O)N1CCC[C@H]1C(=O)N[C@@H](CO)C(=O)N[C@@H](CO)C(=O)N[C@H](C(=O)N[C@@H](CC(N)=O)C(=O)N[C@H](C(=O)NCC(=O)N[C@@H](CO)C(=O)N[C@@H](CC(N)=O)C(=O)N[C@H](C(=O)N[C@@H](Cc1ccc(O)cc1)C(N)=O)[C@@H](C)O)C(C)C)[C@@H](C)O [Example 90],7.2,7.2,42.2,42.2,42.2,42.2,42.2,42.2,42.2,≥ 200,≥ 200,≥ 200,≥ 200,≥ 200,≥ 200,≥ 200,≥ 200,18.2,0.246,74.1,"Ratio rCT/rAmylin binding [4, 23]: 74.1; Ratio rCT/rAmylin binding [4, 24]: 74.1"
CC[C@H](C)[C@H](NC(=O)[C@H](C)NC(=O)CNC(=O)[C@H](Cc1ccccc1)NC(=O)[C@H](CC(N)=O)NC(=O)[C@@H]1CCCN1C(=O)[C@H](CO)NC(=O)[C@H](CO)NC(=O)[C@H](Cc1c[nH]cn1)NC(=O)[C@H](CCCNC(=N)N)NC(=O)[C@H](CC(C)C)NC(=O)[C@H](Cc1ccccc1)NC(=O)[C@H](CC(N)=O)NC(=O)[C@H](C)NC(=O)[C@H](CC(C)C)NC(=O)[C@H](CCCNC(=N)N)NC(=O)[C@H](CCC(N)=O)NC(=O)[C@@H](NC(=O)[C@H](C)NC(=O)[C@@H]1CSSC[C@H](NC(=O)[C@@H](N)CCCCNC(=O)CC[C@H](NC(=O)CCCCCCCCCCCCCCCCCCC(=O)O)C(=O)O)C(=O)N[C@@H](CC(N)=O)C(=O)N[C@@H]([C@@H](C)O)C(=O)N[C@@H](C)C(=O)N[C@@H]([C@@H](C)O)C(=O)N1)[C@@H](C)O)C(=O)N1CCC[C@H]1C(=O)N[C@@H](CO)C(=O)N[C@@H](CO)C(=O)N[C@H](C(=O)N[C@@H](CC(N)=O)C(=O)N[C@H](C(=O)NCC(=O)N[C@@H](CO)C(=O)N[C@@H](CC(N)=O)C(=O)N[C@H](C(=O)N[C@@H](Cc1ccc(O)cc1)C(N)=O)[C@@H](C)O)C(C)C)[C@@H](C)O [Example 48],17.0,17.0,69.7,69.7,69.7,69.7,69.7,69.7,69.7,≥ 200,≥ 200,≥ 200,≥ 200,≥ 200,≥ 200,≥ 200,≥ 200,112,0.558,201.3,"Ratio hCT/hAmylin funct. [1, 25]: 17.0; EC50 [1]: 0.116 nM; IC50 [2]: 0.443 nM; Ratio rCT/rAmylin binding [4, 23]: 201.3; Ratio rCT/rAmylin binding [4, 24]: 201.3"
CC[C@H](C)[C@H](NC(=O)[C@H](C)NC(=O)CNC(=O)[C@H](Cc1ccccc1)NC(=O)[C@H](CC(N)=O)NC(=O)[C@@H]1CCCN1C(=O)[C@H](CO)NC(=O)[C@H](CO)NC(=O)[C@H](Cc1c[nH]cn1)NC(=O)[C@H](CCCNC(=N)N)NC(=O)[C@H](CC(C)C)NC(=O)[C@H](Cc1ccccc1)NC(=O)[C@H](Cc1c[nH]cn1)NC(=O)[C@H](C)NC(=O)[C@H](CC(C)C)NC(=O)[C@H](CCCNC(=N)N)NC(=O)[C@H](CCC(N)=O)NC(=O)[C@@H](NC(=O)[C@H](C)NC(=O)[C@@H]1CSSC[C@H](NC(=O)[C@@H](N)CCCCNC(=O)CC[C@H](NC(=O)CCCCCCCCCCCCCCCCCCC(=O)O)C(=O)O)C(=O)N[C@@H](CC(N)=O)C(=O)N[C@@H]([C@@H](C)O)C(=O)N[C@@H](C)C(=O)N[C@@H]([C@@H](C)O)C(=O)N1)[C@@H](C)O)C(=O)N1CCC[C@H]1C(=O)N[C@@H](CO)C(=O)N[C@@H](CO)C(=O)N[C@H](C(=O)N[C@@H](CC(N)=O)C(=O)N[C@H](C(=O)NCC(=O)N[C@@H](CO)C(=O)N[C@@H](CC(N)=O)C(=O)N[C@H](C(=O)N[C@@H](Cc1ccc(O)cc1)C(N)=O)[C@@H](C)O)C(C)C)[C@@H](C)O [Example 70] (H-K([γGlu-C20 diacid])CNTATCATQRLAHFLRHSSPNFGAIPSSTNVGSNTY-NH2; disulfide 2-7; N-terminus assumed),17.9,17.9,60.8,60.8,60.8,60.8,60.8,60.8,60.8,≥ 200,≥ 200,≥ 200,≥ 200,≥ 200,≥ 200,≥ 200,≥ 200,34.2,0.355,96.5,"Ratio hCT/hAmylin funct. [1, 25]: 17.9; EC50 [1]: 0.04 nM; IC50 [2]: 0.169 nM; Ratio rCT/rAmylin binding [4, 23]: 96.5; Ratio rCT/rAmylin binding [4, 24]: 96.5"
